Laboratory results: patent US11414377B2, “Modulator of metabotropic and ionotropic transmembrane receptors and use thereof” (IBD THERAPEUTICS LLC, priority 2018, dated 2022)

Legend:
NK3R = biological target: T1, NK3R (Homo sapiens, UniProt P29371); experiment: Effect on activity of tachykinin receptor type 3 (intracellular calcium, fluorescence); type: cell-based; settings: CHO-K1 cells expressing NK3R, agonist [MePhe10]-NKB 1 nM, read-out: IC50, antagonist of tachykinin receptor type 3
T1 construct: expressed in transfected cells; host or cells: CHO-K1 cells
T1 sequence (P29371 1-465): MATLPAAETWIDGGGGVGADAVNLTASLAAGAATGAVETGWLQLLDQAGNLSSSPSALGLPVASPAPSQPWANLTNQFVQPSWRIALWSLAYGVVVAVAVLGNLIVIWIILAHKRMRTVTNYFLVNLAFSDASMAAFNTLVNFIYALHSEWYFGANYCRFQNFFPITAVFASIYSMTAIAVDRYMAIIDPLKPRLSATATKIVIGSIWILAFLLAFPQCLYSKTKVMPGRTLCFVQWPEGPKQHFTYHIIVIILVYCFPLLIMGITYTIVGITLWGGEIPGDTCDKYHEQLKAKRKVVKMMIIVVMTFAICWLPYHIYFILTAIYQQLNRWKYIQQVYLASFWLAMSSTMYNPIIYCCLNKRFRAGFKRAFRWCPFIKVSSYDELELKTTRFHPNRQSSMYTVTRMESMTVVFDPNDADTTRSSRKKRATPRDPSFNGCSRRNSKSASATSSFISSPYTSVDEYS
Method: Compound I was dissolved in DMSO to a concentration of 100 mM; then the stock solution was serially diluted with DMSO. The maximal start concentration of substance is 100 μM. The effect was determined at 5 concentrations of test compounds, each concentration was investigated twice. CHO-K1 cells expressing NK3R were used in the experiment, said cells after the preincubation with an agonist [MePhe10]-NKB (1 nM) were incubated with the test compound. The activity of receptors was determined by the intracellular calcium concentration using fluorescence spectroscopy (Br J Pharmacol. 1999 October; 128(3):627-36).

male and female mice = experiment: Acute toxicity at single administration, mice; type: in vivo; settings: for Body weight gain / Death of animals: male and female; for Death of animals: 14 days observation
Method: The acute toxicity study was performed on 24 male and 24 female rats, and also on 24 male and 24 female mice. Before the administration of the Compound I, the body weight of the animals was recorded, after 1 hour of the administration, the state of the experimental animals was observed. Then, the body weights of rats and mice were recorded daily for 14 days after the administration of the substance, and the examination was carried out to detect the cases of death and abnormality in the state of the animals.
Compound I was administered to rats and mice intragastrically at a dose of 5000 mg/kg, intraperitoneally—at a dose of 2000 mg/kg. Control groups (female and male objects) were received a solvent (0.1% Tween-80 solution in water).

female balb/c mice = experiment: Oxazolone-induced inflammatory bowel disease model; type: in vivo; settings: scored at 72 hours, control 2.00 ± 0.21
Method: The study of the activity of Compound I on the oxazolone-induced inflammatory bowel disease model (ulcerative Colitis and Crohn's disease model) was carried out by means of a standard procedure (Heller F., Fuss I. J., Nieuwenhuis E. E., Blumberg R. S., Strober W. Oxazolone colitis, a Th2 colitis model resembling ulcerative colitis, is mediated by IL-13-producing NK-T cells//Immunity. 2002. P. 629-638).
The study was carried out on female balb/c mice. A 3.5 F catheter was introduced into the large intestine to a depth of 3-4 cm. Then, 150 μl of 1% oxazolone solution in 50% ethanol was slowly introduced into the colon lumen, the catheter was slowly removed and the mouse was kept in a vertical position (upside down) for 60 seconds to avoid the introduced solution flowing-out. Experimental animals were returned to the cages and the animal was kept in the warm. Compound I was administered intragastrically, three times: 1 hour, 25 hours and 49 hours after the rectal administration of oxazolone. 72 hours later after the rectal administration of oxazolone, the macroscopic assessment of intestinal wall damage is carried out with the help of score scale: 0 points—no lesions, 1 point—hyperemia, no ulcers, 2 points—hyperemia and thickening of the intestinal wall, no ulcers, 3 points—one ulcer without thickening of the intestine wall, 4 points—2 or more of the site of ulceration or inflammation, 5 points—2 or more severe sites of ulcerations and inflammation, or one site of ulceration/inflammation affecting >1 cm in length of the intestine, 6-10 points—the lesion affects >2 cm in length of the intestine, the score increases by 1 point per each 1 cm that is damaged.
For all data, descriptive statistics is applied: the arithmetic mean (M) and the standard error of the mean (m) are counted up. The normality of distribution of the values obtained in the course of the experiment was checked with the aid of the Shapiro-Wilk test. […] Distinctions were determined at 5% at a level of confidence.

[1] = biological target: recombinant human delta opioid receptor (Homo sapiens, UniProt P41143); experiment: Delta-opioid receptor radioligand displacement ([3H]DADLE); type: binding
Chain of recombinant human delta opioid receptor (P41143 whole entry): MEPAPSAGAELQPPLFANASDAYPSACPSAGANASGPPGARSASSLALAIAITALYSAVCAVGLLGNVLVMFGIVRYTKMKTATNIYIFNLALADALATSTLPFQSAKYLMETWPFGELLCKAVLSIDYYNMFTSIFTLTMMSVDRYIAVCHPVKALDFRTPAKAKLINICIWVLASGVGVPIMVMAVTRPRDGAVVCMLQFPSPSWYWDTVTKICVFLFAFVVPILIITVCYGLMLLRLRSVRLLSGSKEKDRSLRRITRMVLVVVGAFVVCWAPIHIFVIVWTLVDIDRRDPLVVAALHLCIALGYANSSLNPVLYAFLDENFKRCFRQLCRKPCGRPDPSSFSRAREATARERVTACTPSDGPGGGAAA

O=C(Cc1ccc(O)cc1)N[C@@H](Cc1ccccc1)C(=O)NCCc1ccccc1 [Compound I, 2-phenylethylamide N-(p-hydroxyphenylacetyl)phenylalanine]
IC50 (NK3R): 15 µM | Differences in the spontaneous behaviour, responses to the caused reactions (male and female mice; intragastrically 5000 mg/kg, intraperitoneally 2000 mg/kg): not observed | Body weight gain (male and female mice; intragastrically 5000 mg/kg): lag in body weight gain | Death of animals (male and female mice; intragastrically 5000 mg/kg): did not cause death of animals | Body weight gain (male and female mice; intraperitoneally 2000 mg/kg): lag in body weight gain | Death of animals (male and female mice; intraperitoneally 2000 mg/kg): did not cause death of animals | The degree of colon wall damage (female balb/c mice; 10 mg/kg, 1, 25 and 49 hours after oxazolone): 2.20 ± 0.96 points | The degree of colon wall damage (female balb/c mice; 20 mg/kg intragastrically 1, 25 and 49 hours after oxazolone): 0.00 ± 0.00& points | IC50 [1]: 64 µM
